The source made the active and inactive calls. The calls are words filed in the database; no cut-off is given here.
Experiments:
HCT-116 [1] = experiment: cells; conditions: Homo sapiens, HCT-116, 48 h
Histone deacetylase 2 = Histone deacetylase 2 (Homo sapiens, UniProt Q92769); experiment: Inhibition of HDAC2 (unknown origin) using Boc-Lys (acetyl)-AMC as substrate incubated for 10 mins followed by substrate addition measured after 30 mins by fluorescence assay
Histone deacetylase 4 = Histone deacetylase 4 (Homo sapiens, UniProt P56524); experiment: Inhibition of HDAC4 (unknown origin) using Boc-Lys (triflouroacetyl)-AMC as substrate incubated for 10 mins followed by substrate addition measured after 30 mins by fluorescence assay
Chain of Histone deacetylase 4 (P56524 whole entry): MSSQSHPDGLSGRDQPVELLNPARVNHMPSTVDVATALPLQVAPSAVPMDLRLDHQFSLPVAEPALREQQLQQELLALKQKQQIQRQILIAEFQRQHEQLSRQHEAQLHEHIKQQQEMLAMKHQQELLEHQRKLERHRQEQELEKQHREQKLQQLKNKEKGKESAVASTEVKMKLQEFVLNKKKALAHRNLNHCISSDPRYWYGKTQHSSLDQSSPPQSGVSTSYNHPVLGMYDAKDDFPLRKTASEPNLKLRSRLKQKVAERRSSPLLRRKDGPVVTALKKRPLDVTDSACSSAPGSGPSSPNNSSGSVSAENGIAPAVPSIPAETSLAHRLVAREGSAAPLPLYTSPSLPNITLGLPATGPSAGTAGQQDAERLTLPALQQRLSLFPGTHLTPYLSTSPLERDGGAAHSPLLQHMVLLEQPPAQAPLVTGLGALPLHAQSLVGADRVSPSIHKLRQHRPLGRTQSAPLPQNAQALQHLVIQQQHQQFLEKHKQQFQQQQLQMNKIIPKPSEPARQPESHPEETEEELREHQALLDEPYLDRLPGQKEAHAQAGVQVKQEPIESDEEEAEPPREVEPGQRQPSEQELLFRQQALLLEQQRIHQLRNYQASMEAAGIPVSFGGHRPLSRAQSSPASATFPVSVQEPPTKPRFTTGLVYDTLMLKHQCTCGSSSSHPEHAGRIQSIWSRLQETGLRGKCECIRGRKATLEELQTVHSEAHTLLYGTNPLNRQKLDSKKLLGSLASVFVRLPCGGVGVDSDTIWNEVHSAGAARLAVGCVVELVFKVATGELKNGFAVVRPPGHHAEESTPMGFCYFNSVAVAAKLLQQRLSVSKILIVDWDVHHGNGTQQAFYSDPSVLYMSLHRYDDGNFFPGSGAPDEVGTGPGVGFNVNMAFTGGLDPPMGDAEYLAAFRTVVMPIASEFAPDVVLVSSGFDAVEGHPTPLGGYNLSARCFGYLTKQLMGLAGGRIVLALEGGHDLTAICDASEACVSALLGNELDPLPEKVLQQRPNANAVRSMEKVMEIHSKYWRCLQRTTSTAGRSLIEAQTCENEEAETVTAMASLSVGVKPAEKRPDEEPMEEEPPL

[2] = biological target: T1, Protein deacetylase HDAC6 (Homo sapiens, UniProt Q9UBN7); experiment: Inhibition of HDAC6 (unknown origin) using Boc-Lys (acetyl)-AMC as substrate incubated for 10 mins followed by substrate addition measured after 30 mins by fluorescence assay
T1 sequence (Q9UBN7 whole entry): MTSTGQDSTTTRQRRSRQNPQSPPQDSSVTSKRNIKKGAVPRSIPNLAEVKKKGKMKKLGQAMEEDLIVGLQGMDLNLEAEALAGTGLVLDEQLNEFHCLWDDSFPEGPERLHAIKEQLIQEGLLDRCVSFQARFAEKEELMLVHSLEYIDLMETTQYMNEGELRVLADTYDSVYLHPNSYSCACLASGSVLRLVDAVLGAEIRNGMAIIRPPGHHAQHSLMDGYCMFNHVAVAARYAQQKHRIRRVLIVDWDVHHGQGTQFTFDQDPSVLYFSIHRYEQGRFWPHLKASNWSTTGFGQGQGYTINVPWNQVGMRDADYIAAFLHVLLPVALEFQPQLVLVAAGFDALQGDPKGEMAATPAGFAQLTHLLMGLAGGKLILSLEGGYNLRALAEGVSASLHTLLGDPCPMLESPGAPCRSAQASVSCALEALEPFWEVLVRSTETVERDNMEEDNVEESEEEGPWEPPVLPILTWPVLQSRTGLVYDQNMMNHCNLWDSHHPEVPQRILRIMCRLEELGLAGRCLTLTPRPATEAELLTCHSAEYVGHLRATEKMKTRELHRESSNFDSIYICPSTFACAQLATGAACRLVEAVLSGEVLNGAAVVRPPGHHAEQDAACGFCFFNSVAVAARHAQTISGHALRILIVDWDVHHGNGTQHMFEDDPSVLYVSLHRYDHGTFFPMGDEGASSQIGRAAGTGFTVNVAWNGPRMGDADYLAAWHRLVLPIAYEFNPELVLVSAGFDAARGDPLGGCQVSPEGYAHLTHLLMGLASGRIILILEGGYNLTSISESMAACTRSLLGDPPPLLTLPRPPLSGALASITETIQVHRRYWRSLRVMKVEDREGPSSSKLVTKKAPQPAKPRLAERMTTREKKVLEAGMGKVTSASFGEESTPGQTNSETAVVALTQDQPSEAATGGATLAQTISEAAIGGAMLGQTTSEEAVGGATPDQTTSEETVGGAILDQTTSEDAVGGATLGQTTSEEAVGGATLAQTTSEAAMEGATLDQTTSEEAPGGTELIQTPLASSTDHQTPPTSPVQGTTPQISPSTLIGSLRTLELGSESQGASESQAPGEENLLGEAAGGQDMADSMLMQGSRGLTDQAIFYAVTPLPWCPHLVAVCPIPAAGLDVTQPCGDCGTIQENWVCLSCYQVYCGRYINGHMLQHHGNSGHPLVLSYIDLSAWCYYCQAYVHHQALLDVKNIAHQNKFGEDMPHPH

Histone deacetylase 3 = Histone deacetylase 3 (Homo sapiens, UniProt O15379); experiment: Inhibition of HDAC3 (unknown origin) using Boc-Lys (acetyl)-AMC as substrate incubated for 10 mins followed by substrate addition measured after 30 mins by fluorescence assay
Chain of Histone deacetylase 3 (O15379 whole entry): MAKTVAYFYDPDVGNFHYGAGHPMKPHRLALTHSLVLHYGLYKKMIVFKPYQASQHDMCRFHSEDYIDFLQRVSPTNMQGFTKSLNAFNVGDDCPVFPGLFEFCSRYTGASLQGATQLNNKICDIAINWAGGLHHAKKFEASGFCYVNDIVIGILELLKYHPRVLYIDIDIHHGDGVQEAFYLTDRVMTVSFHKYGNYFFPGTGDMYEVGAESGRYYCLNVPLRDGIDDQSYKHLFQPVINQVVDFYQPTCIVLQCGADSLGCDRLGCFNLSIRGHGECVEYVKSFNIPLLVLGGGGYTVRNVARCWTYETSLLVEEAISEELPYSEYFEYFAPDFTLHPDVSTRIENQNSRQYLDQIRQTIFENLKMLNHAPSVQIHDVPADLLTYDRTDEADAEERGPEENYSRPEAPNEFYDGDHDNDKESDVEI

U-937 [3] = experiment: cells; conditions: Homo sapiens, U-937, 48 h
Description: Antiproliferative activity against human U937 cells after 48 hrs by MTT assay

cells = conditions: Homo sapiens, ES-2, 48 h
Description: Antiproliferative activity against human ES2 cells after 48 hrs by MTT assay

U-266 = experiment: Antiproliferative activity against human U266 cells after 48 hrs by MTT assay; format: functional, cell-based; conditions: U-266, 48 h
Histone deacetylase 1 = Histone deacetylase 1 (Homo sapiens, UniProt Q13547); experiment: Inhibition of HDAC1 (unknown origin) using Boc-Lys (acetyl)-AMC as substrate incubated for 10 mins followed by substrate addition measured after 30 mins by fluorescence assay
Chain of Histone deacetylase 1 (Q13547 whole entry): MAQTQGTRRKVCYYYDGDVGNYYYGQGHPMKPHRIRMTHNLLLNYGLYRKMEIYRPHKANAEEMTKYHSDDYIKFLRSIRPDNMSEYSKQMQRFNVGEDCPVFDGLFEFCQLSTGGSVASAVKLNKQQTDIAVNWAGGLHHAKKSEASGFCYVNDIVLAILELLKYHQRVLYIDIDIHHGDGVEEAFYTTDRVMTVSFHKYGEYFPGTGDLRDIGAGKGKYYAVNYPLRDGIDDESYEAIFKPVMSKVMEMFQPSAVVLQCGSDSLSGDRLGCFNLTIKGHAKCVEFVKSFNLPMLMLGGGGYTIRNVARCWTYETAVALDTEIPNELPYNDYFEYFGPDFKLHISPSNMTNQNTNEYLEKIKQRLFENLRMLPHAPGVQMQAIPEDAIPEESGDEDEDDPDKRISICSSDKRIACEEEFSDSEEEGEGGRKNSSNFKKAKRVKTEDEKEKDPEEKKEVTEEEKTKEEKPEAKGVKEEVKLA

Histone deacetylase 8 = biological target: T2, Histone deacetylase 8 (Homo sapiens, UniProt Q9BY41); experiment: Inhibition of HDAC8 (unknown origin) using Boc-Lys (acetyl)-AMC as substrate incubated for 10 mins followed by substrate addition measured after 30 mins by fluorescence assay
T2 sequence (Q9BY41 whole entry): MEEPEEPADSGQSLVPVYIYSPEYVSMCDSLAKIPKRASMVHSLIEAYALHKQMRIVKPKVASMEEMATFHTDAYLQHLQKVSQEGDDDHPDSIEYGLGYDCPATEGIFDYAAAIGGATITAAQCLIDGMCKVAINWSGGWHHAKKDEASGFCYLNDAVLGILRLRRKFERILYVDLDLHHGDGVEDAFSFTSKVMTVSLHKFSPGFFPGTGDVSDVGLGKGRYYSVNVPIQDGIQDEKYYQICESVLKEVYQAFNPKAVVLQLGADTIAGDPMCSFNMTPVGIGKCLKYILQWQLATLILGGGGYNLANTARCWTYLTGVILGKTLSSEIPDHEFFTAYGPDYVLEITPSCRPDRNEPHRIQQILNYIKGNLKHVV

[4] = Inhibition of class 1 HDAC in human HL60 cells using Boc-Ac-Lys-AMC as substrate incubated for 3 hrs followed by substrate addition measured after 3 hrs by fluorescence assay; format: cell-based; conditions: HL-60, 3 h
HL-60 [5] = experiment: cells; conditions: Homo sapiens, HL-60, 48 h
Description: Antiproliferative activity against human HL60 cells after 48 hrs by MTT assay

HEL = experiment: Antiproliferative activity against HEL cells after 48 hrs by MTT assay; format: functional, cell-based; conditions: Homo sapiens
[6] = biological target: T3, Histone deacetylase (HDAC1 and HDAC2) (Homo sapiens) (UniProt Q13547+Q92769); experiment: Inhibition of HDAC1/2 in human HL60 cells assessed as increase in acetylated histone H4 level at 1 to 5 uM after 48 hrs by Western blot analysis; format: cell-based
T3 sequence (Q13547 whole entry, looked up): as the sequence (Q13547 whole entry) above
T3 sequence (Q92769 whole entry, looked up): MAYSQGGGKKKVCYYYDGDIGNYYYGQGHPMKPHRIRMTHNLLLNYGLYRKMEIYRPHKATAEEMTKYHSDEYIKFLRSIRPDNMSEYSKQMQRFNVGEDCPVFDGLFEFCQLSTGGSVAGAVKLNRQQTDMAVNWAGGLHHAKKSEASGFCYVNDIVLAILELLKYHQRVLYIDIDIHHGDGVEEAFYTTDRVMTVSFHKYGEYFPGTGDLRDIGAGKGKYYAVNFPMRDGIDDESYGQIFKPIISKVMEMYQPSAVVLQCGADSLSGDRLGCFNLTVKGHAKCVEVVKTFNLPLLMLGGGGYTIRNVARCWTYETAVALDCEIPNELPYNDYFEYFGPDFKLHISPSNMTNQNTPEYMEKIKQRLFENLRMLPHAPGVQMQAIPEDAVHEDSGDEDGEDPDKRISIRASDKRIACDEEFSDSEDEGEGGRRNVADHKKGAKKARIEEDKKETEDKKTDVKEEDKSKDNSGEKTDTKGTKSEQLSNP

HL-60 [7] = experiment: Induction of apoptosis in human HL60 cells assessed as decrease in procaspase-3 level at 1 to 5 uM after 48 hrs by Western blot analysis; format: functional, cell-based
HL-60 [8] = experiment: Induction of apoptosis in human HL60 cells assessed as increase in cleaved caspase-3 level at 1 to 5 uM after 48 hrs by Western blot analysis; format: functional, cell-based
HCT-116 [9] = experiment: Antitumor activity against human HCT116 cells xenografted in BALB/c nude mouse assessed as tumor growth inhibition at 100 mg/kg/day administered via oral gavage for 16 days measured every 3 days; format: functional; conditions: HCT-116, po, read-out: TGI
HCT-116 [10] = experiment: Antitumor activity against human HCT116 cells xenografted in BALB/c nude mouse assessed as relative tumor increment ratio at 100 mg/kg/day administered via oral gavage for 16 days measured every 3 days; format: functional
Mus musculus [11] = experiment: Toxicity in BALB/c nude mouse xenografted with human HCT116 cells assessed as body weight at 100 mg/kg/day administered via oral gavage for 16 days (reference value: 19.91 +/- 1.26 g); format: organism-based; conditions: in vivo, 384 h
HL-60 [12] = experiment: Induction of apoptosis in human HL60 cells assessed as increase in cleaved PARP level at 1 to 5 uM after 48 hrs by Western blot analysis; format: functional, cell-based
U-937 [13] = experiment: Antitumor activity against human U937 cells xenografted in BALB/c nude mouse assessed as tumor growth inhibition at 100 mg/kg/day administered via oral gavage for 13 days measured every 3 days; format: functional; conditions: U-937, po, read-out: TGI
Mus musculus [14] = experiment: Toxicity in BALB/c nude mouse xenografted with human U937 cells assessed as body weight at 100 mg/kg/day administered via oral gavage for 13 days (reference value: 25.39 +/- 1.18 g); format: organism-based; conditions: in vivo, 312 h
[15] = biological target: T3, Histone deacetylase (HDAC1 and HDAC2) (Homo sapiens); experiment: Inhibition of HDAC1/2 in human HL60 cells assessed as increase in acetylated histone H3 level at 1 to 5 uM after 48 hrs by Western blot analysis; format: cell-based
K562 = experiment: cells; conditions: Homo sapiens, K562, 48 h

Chain of Histone deacetylase 2 (Q92769 whole entry): as the sequence (Q92769 whole entry, looked up) above

SMILES | IC50 (HCT-116 [1]) [nM] | IC50 (Histone deacetylase 2) [nM] | IC50 (Histone deacetylase 3) [nM] | IC50 (U-937 [3]) [nM] | IC50 (cells) [nM] | IC50 (U-266) [nM] | IC50 (Histone deacetylase 1) [nM] | other results
COc1ccc(C(=O)N[C@@H](Cc2c[nH]c3ccccc23)C(=O)NCCCCCC(=O)Nc2cc(-c3cccs3)ccc2N)cc1 | > 20000 | 337 | 3570 | > 20000 | > 20000 | > 20000 | 48 | IC50 (Histone deacetylase 4): > 100000 nM; IC50 [2]: > 100000 nM; IC50 (Histone deacetylase 8): > 100000 nM
Nc1ccccc1NC(=O)c1ccc(CNC(=O)[C@H](Cc2c[nH]c3ccccc23)NC(=O)c2cnccn2)cc1 | – | – | – | – | – | – | – | IC50 [4]: 1020 nM; IC50 (HL-60 [5]): 5850 nM
COc1ccc(C(=O)N[C@H](CNCc2ccc(C(=O)Nc3ccccc3N)cc2)Cc2c[nH]c3ccccc23)cc1 | – | 21.2 | 223 | – | – | – | 29.9 | –
COc1ccc(C(=O)N[C@@H](Cc2c[nH]c3ccccc23)C(=O)NCc2ccc(C(=O)Nc3cc(-c4cccs4)ccc3N)cc2)cc1 | > 20000 | 320 | 8010 | > 20000 | > 20000 | > 20000 | 58.8 | IC50 (HEL): > 20000 nM
COc1ccc(C(=O)N[C@@H](Cc2c[nH]c3ccccc23)C(=O)NCCCCCC(=O)Nc2ccccc2N)cc1 | – | 296 | 42.9 | – | – | – | 58.6 | –
COc1ccc(C(=O)N[C@@H](Cc2c[nH]c3ccccc23)C(=O)Nc2ccc(C(=O)Nc3ccc(F)cc3N)cc2)cc1 | – | 121 | 167 | – | – | – | 91.7 | –
COc1ccc(C(=O)N[C@@H](Cc2c[nH]c3ccccc23)C(=O)NCc2ccc(C(=O)Nc3ccccc3N)cc2)cc1 | – | 157 | 138 | – | > 20000 | – | 20.6 | inhibition [6]: Active; Activity (HL-60 [7]): Active; Activity (HL-60 [8]): Active; inhibition in vivo at 100 mg/kg/day (HCT-116 [9]): 49%; T/C (HCT-116 [10]): 59%; Activity (Mus musculus [11]): 21.59 g; Activity (HL-60 [12]): Active; inhibition in vivo at 100 mg/kg/day (U-937 [13]): 51%; Activity (Mus musculus [14]): 25.04 g; inhibition [15]: Active
Nc1ccccc1NC(=O)c1ccc(CNC(=O)[C@H](Cc2c[nH]c3ccccc23)NC(=O)c2ccc(C(F)(F)F)cc2)cc1 | – | – | – | – | – | – | – | IC50 [4]: 1980 nM; IC50 (HL-60 [5]): 3090 nM
COc1ccc(C(=O)N[C@@H](Cc2c[nH]c3ccccc23)C(=O)NCc2ccc(C(=O)Nc3cc(-c4ccccc4)ccc3N)cc2)cc1 | > 20000 | 311 | 30900 | > 20000 | > 20000 | > 20000 | 58.4 | inhibition [6]: Active; Activity (HL-60 [7]): inactive; Activity (HL-60 [8]): inactive; IC50 (K562): 14000 nM; Activity (HL-60 [12]): inactive; IC50 (HEL): > 20000 nM; inhibition [15]: Active
COc1ccc(C(=O)N[C@@H](Cc2c[nH]c3ccccc23)C(=O)NCCCCCC(=O)Nc2cc(-c3ccccc3)ccc2N)cc1 | > 20000 | 490 | 5630 | > 20000 | > 20000 | > 20000 | 55.5 | –
O=C(CCCCCCC(=O)Nc1ccccc1)NO [VORINOSTAT] | – | – | – | – | – | – | – | Activity (Mus musculus [11]): 21.23 g

From ChEMBL document CHEMBL4020724, “Selective HDAC inhibitors with potent oral activity against leukemia and colorectal cancer: Design, structure-activity relationship and anti-tumor activity study” (Eur J Med Chem, 2017)
